pIC50: −log10 of the molar value.
What was measured:
SK-MEL-3 tumor cells = experiment: Method C: Cell Growth Inhibition Assay (CellTiter-Glo), SK-MEL-3; assay type: cell-based; conditions: Homo sapiens, SK-MEL3, 72 h, 3 days, 4-parameter fit
Procedure: (§1) Human breast tumor cells (BT474) were cultured in RPMI (Mediatech 50-011-PB), containing 10% FBS (JRH Biosciences 12176) and 1% penicillin-streptomycin (Invitrogen 15140). Human head and neck tumor cells (HN5) were cultured in high glucose DMEM (Mediatech 50-013-PB) containing 10% FBS and 1% penicillin-streptomycin. Human colon tumor cells (Colo205) were cultured in RPMI (Mediatech 50-020-PB) containing 10% FBS and 1% penicillin-streptomycin. Human melanoma cancer cells (SK-MEL-28) were cultured in EMEM with nonessential amino acids (Mediatech 50-011-PB) containing 10% FBS, 1% sodium pyruvate (JT Baker 3354-04), and 1% penicillin-streptomycin. Human melanoma cancer cells (A375P F11s) were cultured in RPMI (Mediatech 50-020-PB) containing 10% FBS, 1% sodium pyruvate, and 1% penicillin-streptomycin. Human colon cancer cells (HT-29) were cultured in high glucose DMEM (Mediatech 50-013-PB) containing 10% FBS and 1% penicillin-streptomycin. Human melanoma cancer cells (SK-MEL-3) were cultured in McCoy's 5A (50-025-PB) containing 15% FBS, and 1% penicillin-streptomycin. All cell lines were maintained at 37° C. in a humidified 5% CO2, 95% air incubator. Cells were harvested using trypsin/EDTA (Invitrogen 25200), counted using an haemocytometer, and plated. For 96-well assays (using white full-area NUNC plates cat. #136102), cells were plated in 105 μL at the following densities (cells/well): HN5, 500; Colo205, 500; SK-MEL-28, 500; A375P-F11s, 500; HT-29, 500; SK-MEL-3, 500; and BT474, 3000. For 384-well assays (white full-area NUNC plates, cat. #781080), cells were plated in 48 μL at the following densities (cells/well): HN5, 500; Colo205, 500; SK-MEL-28, 500; A375P-F11s, 500; HT29, 500; SK-MEL-3, 500; and BT474, 2000.
(§2) The next day, compounds were diluted as follow: For 96-well assays, 13.5 μL of compound in DMSO were diluted using nine (9) serial 1:3 dilutions of 4.5 μL in 9 μL of DMSO. Medium (270 μl/well of RPMI with 10% FBS and 1% penicillin-streptomycin) was added to the plates. Aliquots (7 μl) were added to cells in the final assay giving a final DMSO concentration of 0.2%. For 384-well assays, 15 μL of compound in DMSO were diluted using nine (9) serial 1:3 dilutions of 5 μL in 10 μL of DMSO, followed by a further dilution of 5 μL of compound with 95 μL of medium, of which 2 μL were added to cells in the final assay giving a final DMSO concentration of 0.2%. Cells were incubated at 37° C., 5% CO2 for 3 days.
(§3) Total ATP was measured (as a surrogate estimate of cell number) using CellTiter-Glo® reagent (Promega G7571). Briefly, plates were removed from the incubator and allowed to equilibrate to room temperature for 30 minutes. CellTiter-Glo® (25 μL or 55 μL for 384-well or 96-well assays, respectively) reagent was added to each well and plates were shaken on an orbital plate shaker for 2 mins. Plates were incubated without shaking for a further 30 mins and read on an LJL Analyst GT reader in luminometer mode with an integration time of 0.5 seconds per well. Percent inhibition of cell growth was calculated relative to DMSO vehicle-treated control wells. Concentration of compound required to give 50% inhibition of vehicle-treated control cell growth (IC50) was interpolated using a 4-parameter fit for determining IC50 using the following equation: Y=A+((B−A)/(1+((C/X)̂D))) where X=IC50.

EGFR = target: T1, EGFR (Homo sapiens, UniProt P00533); experiment: EGFR substrate phosphorylation assay (HTRF); assay type: biochemical; conditions: Method (A): Enzyme Mix incubated with compound at 20° C. for 1 hr, reaction started by adding Substrate Mix
T1 construct: made in house; host or cells: baculovirus expression system
T1 sequence (P00533 25-1210): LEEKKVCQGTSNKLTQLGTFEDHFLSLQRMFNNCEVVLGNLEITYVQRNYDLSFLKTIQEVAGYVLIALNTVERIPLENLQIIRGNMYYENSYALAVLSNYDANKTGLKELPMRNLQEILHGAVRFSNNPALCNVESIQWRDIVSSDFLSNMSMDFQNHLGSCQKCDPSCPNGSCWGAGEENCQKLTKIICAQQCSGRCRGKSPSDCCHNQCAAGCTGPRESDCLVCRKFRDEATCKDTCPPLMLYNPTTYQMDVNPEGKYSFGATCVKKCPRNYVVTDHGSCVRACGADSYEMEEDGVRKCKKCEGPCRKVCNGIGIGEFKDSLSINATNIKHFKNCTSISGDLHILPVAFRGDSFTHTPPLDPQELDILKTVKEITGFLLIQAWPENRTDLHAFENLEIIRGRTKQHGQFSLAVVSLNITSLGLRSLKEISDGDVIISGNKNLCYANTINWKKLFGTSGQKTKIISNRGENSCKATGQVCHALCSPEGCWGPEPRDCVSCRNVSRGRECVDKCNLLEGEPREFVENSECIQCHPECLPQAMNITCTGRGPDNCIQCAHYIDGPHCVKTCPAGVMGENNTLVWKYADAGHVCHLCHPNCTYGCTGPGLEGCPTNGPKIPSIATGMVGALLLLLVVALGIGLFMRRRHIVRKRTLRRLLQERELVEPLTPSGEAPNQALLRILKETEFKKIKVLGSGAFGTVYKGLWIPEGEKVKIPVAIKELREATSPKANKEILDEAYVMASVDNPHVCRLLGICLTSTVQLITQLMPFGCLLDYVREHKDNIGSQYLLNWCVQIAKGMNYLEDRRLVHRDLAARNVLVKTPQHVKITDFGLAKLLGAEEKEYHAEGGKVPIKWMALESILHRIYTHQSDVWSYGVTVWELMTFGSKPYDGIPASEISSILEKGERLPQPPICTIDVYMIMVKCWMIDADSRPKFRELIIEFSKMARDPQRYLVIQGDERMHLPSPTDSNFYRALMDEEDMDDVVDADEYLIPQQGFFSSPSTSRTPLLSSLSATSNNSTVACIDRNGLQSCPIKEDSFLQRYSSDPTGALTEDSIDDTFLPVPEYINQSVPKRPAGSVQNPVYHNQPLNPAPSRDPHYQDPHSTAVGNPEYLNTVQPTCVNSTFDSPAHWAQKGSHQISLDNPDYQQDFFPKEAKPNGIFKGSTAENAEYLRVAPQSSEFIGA
In short: (§4)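 Baculovirus-expressed kinase (0.8 nM EGFR or 10 nM ErbB2 in enzyme mix) with Peptide C 0.8 μM and ATP 20 μM (substrate-mix levels), MOPS pH 7.5, MnCl2; 90 min, 20 °C, HTRF anti-phosphotyrosine. Method A adds 1 h enzyme–compound preincubation; B none. pIC50, final compound 0.00027–47.6 μM.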

Colo205 tumor cells = experiment: Method C: Cell Growth Inhibition Assay (CellTiter-Glo), Colo205; assay type: cell-based; conditions: Homo sapiens, COLO 205, 72 h, 3 days, 4-parameter fit
In short: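 Growth inhibition is expressed as the concentration giving 50% inhibition relative to vehicle controls, derived from a 4-parameter fit. Tumor cells plated at 500 per well were exposed for 3 days to compound (0.2% DMSO) before total ATP was quantified by CellTiter-Glo.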

HN5 tumor cells = experiment: Method C: Cell Growth Inhibition Assay (CellTiter-Glo), HN5; assay type: cell-based; conditions: Homo sapiens, 72 h, 3 days, 4-parameter fit
In short: (§5)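 Cells were seeded at 500 per well and dosed the next day with nine serial 1:3 compound dilutions (0.2% DMSO final), then grown 3 days at 37° C, 5% CO2. ATP was measured by CellTiter-Glo luminescence, and IC50 was interpolated by 4-parameter fit of percent inhibition versus DMSO controls.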

BT474 tumor cells = experiment: Method C: Cell Growth Inhibition Assay (CellTiter-Glo), BT474; assay type: cell-based; conditions: Homo sapiens, BT-474, 72 h, 3 days, 4-parameter fit
SK-MEL-28 tumor cells = experiment: Method C: Cell Growth Inhibition Assay (CellTiter-Glo), SK-MEL-28; assay type: cell-based; conditions: Homo sapiens, SK-MEL-28, 72 h, 3 days, 4-parameter fit
In short: as §5

HT-29 tumor cells = experiment: Method C: Cell Growth Inhibition Assay (CellTiter-Glo), HT-29; assay type: cell-based; conditions: Homo sapiens, HT-29, 72 h, 3 days, 4-parameter fit
Procedure: as §1, §2, §3

A375P F11s tumor cells = experiment: Method C: Cell Growth Inhibition Assay (CellTiter-Glo), A375P F11s; assay type: cell-based; conditions: Homo sapiens, 72 h, 3 days, 4-parameter fit
Procedure: as §1, §2, §3

ErbB2 = target: T2, ErbB2 (Homo sapiens, UniProt P04626); experiment: ErbB-2 substrate phosphorylation assay (HTRF); assay type: biochemical; conditions: Method (A): Enzyme Mix incubated with compound at 20° C. for 1 hr, reaction started by adding Substrate Mix
T2 construct: made in house; host or cells: baculovirus expression system
T2 sequence (P04626 23-1255): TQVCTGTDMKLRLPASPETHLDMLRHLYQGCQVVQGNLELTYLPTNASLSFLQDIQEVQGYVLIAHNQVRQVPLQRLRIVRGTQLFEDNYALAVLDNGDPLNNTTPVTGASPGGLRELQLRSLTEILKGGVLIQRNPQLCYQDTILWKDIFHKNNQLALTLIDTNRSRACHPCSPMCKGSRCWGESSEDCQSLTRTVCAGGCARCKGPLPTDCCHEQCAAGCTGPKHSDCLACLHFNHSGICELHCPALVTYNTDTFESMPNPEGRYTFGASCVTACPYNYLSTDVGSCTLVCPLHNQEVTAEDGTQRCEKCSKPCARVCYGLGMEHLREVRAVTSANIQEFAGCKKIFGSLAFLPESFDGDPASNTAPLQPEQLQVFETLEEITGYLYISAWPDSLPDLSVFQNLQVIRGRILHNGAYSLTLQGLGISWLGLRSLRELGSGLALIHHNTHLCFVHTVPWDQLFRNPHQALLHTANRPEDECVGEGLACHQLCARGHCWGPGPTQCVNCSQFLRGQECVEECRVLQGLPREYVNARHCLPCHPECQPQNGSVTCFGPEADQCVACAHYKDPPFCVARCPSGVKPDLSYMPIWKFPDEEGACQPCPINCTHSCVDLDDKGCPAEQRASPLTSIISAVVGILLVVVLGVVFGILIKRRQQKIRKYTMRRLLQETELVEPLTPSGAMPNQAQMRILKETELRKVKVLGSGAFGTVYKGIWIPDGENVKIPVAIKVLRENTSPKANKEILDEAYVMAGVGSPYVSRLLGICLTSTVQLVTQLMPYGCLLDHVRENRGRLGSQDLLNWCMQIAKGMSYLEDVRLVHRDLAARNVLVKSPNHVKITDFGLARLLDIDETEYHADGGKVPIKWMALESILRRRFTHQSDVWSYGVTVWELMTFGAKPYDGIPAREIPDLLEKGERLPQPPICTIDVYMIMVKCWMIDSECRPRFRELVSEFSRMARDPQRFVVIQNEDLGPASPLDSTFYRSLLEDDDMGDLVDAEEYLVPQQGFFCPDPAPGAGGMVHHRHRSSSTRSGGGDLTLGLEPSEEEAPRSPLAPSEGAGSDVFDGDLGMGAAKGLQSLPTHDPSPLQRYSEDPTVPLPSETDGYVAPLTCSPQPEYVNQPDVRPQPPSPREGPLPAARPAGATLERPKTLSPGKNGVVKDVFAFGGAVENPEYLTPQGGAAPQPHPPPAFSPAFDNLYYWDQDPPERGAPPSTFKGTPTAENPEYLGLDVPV
In short: as §4

| SMILES | pIC50 (SK-MEL-3 tumor cells) | pIC50 (EGFR) | pIC50 (Colo205 tumor cells) | pIC50 (HN5 tumor cells) | pIC50 (BT474 tumor cells) | pIC50 (SK-MEL-28 tumor cells) | pIC50 (HT-29 tumor cells) | pIC50 (A375P F11s tumor cells) | pIC50 (ErbB2) |
| --- | --- | --- | --- | --- | --- | --- | --- | --- | --- |
| Cc1nc(-c2cccc(NC(=O)c3c(F)cccc3F)c2)c(-c2ccnc(Nc3ccc(OCCN(C)C)c(F)c3)n2)s1 [Example 105, N-[3-(5-{2-[(4-{[2-(Dimethylamino)ethyl]oxy}-3-fluorophenyl)amino]-4-pyrimidinyl}-2-methyl-1,3-thiazol-4-yl)phenyl]-2,6-difluorobenzamide] | < 6.00 | > 7.00 | 6.00 to 7.00 | > 7.00 | > 7.00 | < 6.00 | 6.00 to 7.00 | 6.00 to 7.00 | > 7.00 |
| COc1ccc(Nc2nccc(-c3scnc3-c3cccc(NC(=O)c4c(F)cccc4F)c3)n2)cc1N1CCN(C)CC1 [Example 93, 2,6-Difluoro-N-{3-[5-(2-{[4-(methyloxy)-3-(4-methyl-1-piperazinyl)phenyl]amino}-4-pyrimidinyl)-1,3-thiazol-4-yl]phenyl}benzamide] | 6.00 to 7.00 | > 7.00 | 6.00 to 7.00 | > 7.00 | > 7.00 | 6.00 to 7.00 | 6.00 to 7.00 | 6.00 to 7.00 | > 7.00 |
| CN(C)CCOc1ccc(Nc2nccc(-c3sc(N4CCN(C)CC4)nc3-c3cccc(NC(=O)c4c(F)cccc4F)c3)n2)cc1Cl [Example 45, N-{3-[5-{2-[(3-Chloro-4-{[2-(dimethylamino)ethyl]oxy}phenyl)amino]-4-pyrimidinyl}-2-(4-methyl-1-piperazinyl)-1,3-thiazol-4-yl]phenyl}-2,6-difluorobenzamide] | 6.00 to 7.00 | > 7.00 | 6.00 to 7.00 | 6.00 to 7.00 | 6.00 to 7.00 | < 6.00 | 6.00 to 7.00 | 6.00 to 7.00 | > 7.00 |
| CN(C)CCOc1cccc(Nc2nccc(-c3scnc3-c3cccc(NC(=O)c4c(F)cccc4F)c3)n2)c1 [Example 79, N-[3-(5-{2-[(3-{[2-(Dimethylamino)ethyl]oxy}phenyl)amino]-4-pyrimidinyl}-1,3-thiazol-4-yl)phenyl]-2,6-difluorobenzamide-formic acid] | < 6.00 | > 7.00 | 6.00 to 7.00 | > 7.00 | > 7.00 | < 6.00 | 6.00 to 7.00 | 6.00 to 7.00 | > 7.00 |
| CN(C)CCOc1cccc(Nc2nccc(-c3sc(N)nc3-c3cccc(NC(=O)c4c(F)cccc4F)c3)n2)c1 [Example 22, N-[3-(2-Amino-5-{2-[(3-{[2-(dimethylamino)ethyl]oxy}phenyl)amino]-4-pyrimidinyl}-1,3-thiazol-4-yl)phenyl]-2,6-difluorobenzamide] | 6.00 to 7.00 | > 7.00 | 6.00 to 7.00 | > 7.00 | > 7.00 | 6.00 to 7.00 | 6.00 to 7.00 | 6.00 to 7.00 | > 7.00 |
| O=C(Nc1cccc(-c2nc(NC3CC3)sc2-c2ccnc(Nc3ccc(OCCN4CCCC4)c(F)c3)n2)c1)c1c(F)cccc1F [Example 33, N-[3-(2-(Cyclopropylamino)-5-{2-[(3-fluoro-4-{[2-(1-pyrrolidinyl)ethyl]oxy}phenyl)amino]-4-pyrimidinyl}-1,3-thiazol-4-yl)phenyl]-2,6-difluorobenzamide] | 6.00 to 7.00 | > 7.00 | 6.00 to 7.00 | 6.00 to 7.00 | > 7.00 | 6.00 to 7.00 | 6.00 to 7.00 | 6.00 to 7.00 | > 7.00 |
| CCc1nc(-c2cccc(NC(=O)c3c(F)cccc3F)c2)c(-c2ccnc(Nc3ccc(OCCN(C)C)c(Cl)c3)n2)s1 [Example 114, N-[3-(5-{2-[(3-Chloro-4-{[2-(dimethylamino)ethyl]oxy}phenyl)amino]-4-pyrimidinyl}-2-ethyl-1,3-thiazol-4-yl)phenyl]-2,6-difluorobenzamide] | < 6.00 | > 7.00 | 6.00 to 7.00 | 6.00 to 7.00 | 6.00 to 7.00 | 6.00 to 7.00 | 6.00 to 7.00 | 6.00 to 7.00 | > 7.00 |
| CN1CCc2ccc(Nc3nccc(-c4sc(C5CCNCC5)nc4-c4cccc(NC(=O)c5c(F)cccc5F)c4)n3)cc2C1 [Example 124, 2,6-Difluoro-N-{3-[5-{2-[(2-methyl-1,2,3,4-tetrahydro-7-isoquinolinyl)amino]-4-pyrimidinyl}-2-(4-piperidinyl)-1,3-thiazol-4-yl]phenyl}benzamide] | < 6.00 | > 7.00 | 6.00 to 7.00 | 6.00 to 7.00 | 6.00 to 7.00 | < 6.00 | < 6.00 | < 6.00 | > 7.00 |
| CCc1nc(-c2cccc(NC(=O)c3c(F)cccc3F)c2)c(-c2ccnc(Nc3ccc(OCCN(C)C)c(F)c3)n2)s1 [Example 112, N-[3-(5-{2-[(4-{[2-(Dimethylamino)ethyl]oxy}-3-fluorophenyl)amino]-4-pyrimidinyl}-2-ethyl-1,3-thiazol-4-yl)phenyl]-2,6-difluorobenzamide] | < 6.00 | > 7.00 | 6.00 to 7.00 | 6.00 to 7.00 | > 7.00 | < 6.00 | 6.00 to 7.00 | 6.00 to 7.00 | > 7.00 |
| O=C(Nc1cccc(-c2ncsc2-c2ccnc(Nc3cccc(CN4CCCC4)c3)n2)c1)c1c(F)cccc1F [Example 94, 2,6-Difluoro-N-{3-[5-(2-{[3-(1-pyrrolidinylmethyl)phenyl]amino}-4-pyrimidinyl)-1,3-thiazol-4-yl]phenyl}benzamide] | 6.00 to 7.00 | > 7.00 | 6.00 to 7.00 | > 7.00 | > 7.00 | < 6.00 | 6.00 to 7.00 | < 6.00 | > 7.00 |
| Cc1nc(-c2cccc(NC(=O)c3c(F)cccc3F)c2)c(-c2ccnc(Nc3cccc(CN4CCCC4)c3)n2)s1 [Example 104, 2,6-Difluoro-N-{3-[2-methyl-5-(2-{[3-(1-pyrrolidinylmethyl)phenyl]amino}-4-pyrimidinyl)-1,3-thiazol-4-yl]phenyl}benzamide] | 6.00 to 7.00 | > 7.00 | 6.00 to 7.00 | 6.00 to 7.00 | > 7.00 | < 6.00 | 6.00 to 7.00 | 6.00 to 7.00 | > 7.00 |
